Where “and” joins values, the source holds several entries; their conditions need not be identical. Identical values can stand only once. Like-named read-outs stand apart in the source and are kept apart here. Marks after values point to notes of the source that are not given here.
What was measured:
[1] = test system: Alternaria solani; experiment: Alternaria test (tomato) / protective; type: in vivo; settings: 500 ppm active compound, protective spray, evaluated 7 days after inoculation
Summary of the method: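 Efficacy scored 7 days after inoculation, where 100% means no infection and 0% matches the untreated control. Test plants were young tomatoes given a protective spray at the stated rate, compound dissolved in DMF plus emulsifier and diluted with water. Incubation at 20° C, 96% relative humidity.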

[2] = test system: Fusarium proliferatum; experiment: Production of fumonisin FB1 by Fusarium proliferatum (microtiter plate, HPLC-MS/MS and OD620); type: cell-based; settings: for % inhibition FB1 production at 50 μM: 5 days at 20° C., HPLC-MS/MS; for % inhibition fungal growth at 50 μM: Fusarium proliferatum, OD620 at start and after 5 days
[3] = test system: Fusarium graminearum; type: cell-based
[4] = test system: Leptosphaeria nodorum; experiment: Leptosphaeria nodorum test (wheat) / protective; type: in vivo; settings: 500 ppm active compound, protective spray, evaluated 7-9 days after inoculation
Experimental: Leptosphaeria nodorum Test (Wheat)/Protective
Solvent: 49 parts by weight of N,N-dimethylformamide
Emulsifier: 1 part by weight of alkylaryl polyglycol ether
To produce a suitable preparation of active compound, 1 part by weight of active compound is mixed with the stated amounts of solvent and emulsifier, and the concentrate is diluted with water to the desired concentration.
To test for protective activity, young wheat plants are sprayed with the preparation of active compound at the stated application rate. […] The plants are then placed in a greenhouse at 90% rel. atmospheric humidity and a temperature of 22° C.
Evaluation is carried out 7-9 days after the inoculation. 0% means an efficacy which corresponds to that of the control, whereas an efficacy of 100% means that no infection is observed.

[5] = test system: Pyrenophora teres; experiment: In vivo test on Pyrenophora teres (barley net blotch); settings: dose of 500 ppm; barley plants; grading 12 days after contamination
Summary of the method: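 Scoring is done 12 days after spore spraying (12,000 spores/ml, from 12-day-old culture), relative to water-treated controls. Inoculation follows by 24 h a preventive spray of the aqueous-diluted formulation onto 1-leaf Plaisant barley raised at 12° C.; infection holds 24 h at about 20° C./100% RH, then 12 days at 80% RH.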

[6] = physchem

Row | SMILES | efficacy [1] | % inhibition FB1 production at 50 μM [2] | % inhibition fungal growth at 50 μM [2] | % Inhibition of fungal growth at 50 μM ([3]; 50 μM) | % Inhibition of DON/AcDON at 50 μM ([3]; 50 μM, 7 days at 28° C.) | log p (pH 2.7) | efficacy [4] | protection [5] | % Inhibition of DON/AcDON at 50 μM [3] | chromatographic logP ([6]; pH 2.7) | chromatographic logP ([6]; pH 7.8) | log p (pH 2.3) | logP value of the minor isomer (pH 2.7)
1 | CCC(C)n1cc(-c2ccncc2)c(-c2ccc(F)s2)n1 (centres unmarked) [Example 106] | 100% | 98% | 39% | 98% | 99% | 1.78^[b] |  |  |  |  |  |  | 
2 | CCC(C)C(=O)Nc1cc(-c2cn(CC)nc2-c2ccc(Cl)s2)ccn1 (centres unmarked) [Example 252] | 95% |  |  | 99% | 99% | 3.13^[b] | 70% | 100% |  |  |  |  | 
3 | CC(=O)N(C(C)=O)c1cc(-c2cn(C(C)C)nc2-c2ccc(Cl)s2)ccn1 [Example 304] | 95% |  |  | 87% and 90% |  | 3.33^[b] | 80% | 95% | 100% |  |  |  | 
4 | CCn1cc(-c2ccnc(NC(=O)C(C)C)c2)c(-c2ccc(Cl)s2)n1 [Example 285] | 95% |  |  | 90% | 99% | 2.77^[b] | 80% | 95% |  |  |  |  | 
5 | CC(=O)n1cc(-c2ccncn2)c(-c2ccc(Cl)s2)n1 [Example 4] |  | 89% | 22% |  |  | 2.92^[b] |  |  |  |  |  |  | 
6 | Cn1cc(-c2ccnc(NC(=O)C3CC3)c2)c(-c2ccc(Cl)s2)n1 [Example 279] | 80% |  |  | 100% | 98% | 2.16^[b] | 70% | 95% |  |  |  |  | 
7 | CCC(C)n1ncc(-c2ccncc2)c1-c1ccc(F)s1 (centres unmarked) [Example 107] |  | 80% | 1% | 86% | 100% | 1.69^[b] |  |  |  |  |  |  | 
8 | CC(=O)Nc1cc(-c2cn(C(C)C)nc2-c2ccc(Cl)s2)ccn1 [Example 256] | 100% |  |  | 100% | 99% | 2.45^[b] | 80% | 100% |  |  |  |  | 
9 | CCC(=O)Nc1cc(-c2cn(C(C)CC)nc2-c2cc(Cl)cs2)ccn1 (centres unmarked) [Example 164, N-{4-[1-sec-Butyl-3-(4-chloro-2-thienyl)-1H-pyrazol-4-yl]pyridin-2-yl}propanamide] | 90% |  |  |  |  |  | 95% | 100% |  | 3.07 | 3.59 |  | 
10 | CCC(C)n1cc(-c2ccnc(NC(=O)C(C)C)c2)c(-c2ccc(Cl)s2)n1 (centres unmarked) [Example 234] | 90% |  |  | 45% | 96% | 3.63^[b] | 80% | 95% |  |  |  |  | 
11 | CCC(C)n1cc(-c2ccnc(NC(=O)C3CC3)c2)c(-c2ccc(Cl)s2)n1 (centres unmarked) [Example 226] | 90% |  |  | 93% | 99% | 3.35^[b] | 80% | 100% |  |  |  |  | 
12 | CCC(=O)Nc1cc(-c2cn(C(C)C)nc2-c2ccc(Cl)s2)ccn1 [Example 246] | 95% |  |  | 91% | 99% | 2.78^[b] | 90% | 100% |  |  |  |  | 
13 | CC(C)C(=O)Nc1cc(-c2cn(C(C)C)nc2-c2ccc(Cl)s2)ccn1 [Example 257] | 95% |  |  | 81% | 99% | 3.21^[b] | 90% | 95% |  |  |  |  | 
14 | COc1ccc(Cn2nc(-c3ccc(Cl)s3)c(-c3ccncc3)c2C2CC2)cc1 [Example 101] |  | 87% | 0% |  |  | 2.69^[b] |  |  |  |  |  |  | 
15 | CC(C)n1cc(-c2ccnc(NC(=O)C3CC3)c2)c(-c2ccc(Cl)s2)n1 [Example 247] | 95% |  |  | 91% | 99% | 2.94^[b] | 80% | 100% |  |  |  |  | 
16 | CCn1cc(-c2ccnc(N)c2)c(-c2ccc(Cl)s2)n1 [Example 307] | 80% and 94% |  |  | 45% | 80% | 1.54^[b] | 78% | 80% and 95% |  |  |  |  | 
17 | CCC(=O)Nc1cc(-c2cn(C)nc2-c2ccc(Cl)s2)ccn1 [Example 278] | 90% |  |  | 100% | 98% | 2.05^[b] | 80% | 90% |  |  |  |  | 
18 | CC(C)Cn1cc(-c2ccncc2)c(-c2cccs2)n1 [Example 407] | 90% |  |  | 99% | 100% | 1.5^[b] | 94% | 90% |  |  |  |  | 
19 | CC(C)Cn1cc(-c2ccnc(NC(=O)C(C)C)n2)c(-c2ccc(Cl)s2)n1 [Example 98] |  | 97% | 4% |  |  |  |  |  |  |  |  | 3.67^[a] | 
20 | CC(C)Cn1cc(-c2ccncc2)c(-c2ccc(Br)s2)n1 [Example 405] | 94% |  |  | 90% | 99% | 2.1^[b] | 94% | 70% |  |  |  |  | (1.98)
21 | CCC(C)n1cc(-c2ccncc2)c(-c2cc(Cl)cs2)n1 (centres unmarked) [Example 167, 4-[1-sec-Butyl-3-(4-chloro-2-thienyl)-1H-pyrazol-4-yl]pyridine] | 90% |  |  |  |  |  | 90% | 95% |  | 1.86 |  |  | (1.76)
22 | CC(=O)Nc1cc(-c2cnn(/C=C/F)c2-c2ccc(Cl)s2)ccn1 [Example 292] | 90% |  |  | 45% | 100% | 2.84^[b] | 70% | 95% |  |  |  |  | 
23 | CC(C)CC(=O)Nc1cc(-c2cn(C(C)C)nc2-c2ccc(Cl)s2)ccn1 [Example 258] | 95% |  |  | 54% | 94% | 3.63^[b] | 70% | 100% |  |  |  |  | 
24 | CC(=O)Nc1cc(-c2cn(C)nc2-c2ccc(Cl)s2)ccn1 [Example 287] | 90% |  |  | 94% | 99% | 1.79^[b] | 80% | 95% |  |  |  |  | 
25 | CCC(C)n1cc(-c2ccnc(C#N)c2)c(-c2ccc(Cl)s2)n1 (centres unmarked) [Example 97] | 90% | 99% | 17% |  |  | 4.41^[b] |  |  |  |  |  |  | 

Source: patent US8685974B2 (Bayer CropScience AG, priority 2009, dated 2014)
